Laboratory results from patent publication EP3046573B1, “AMYLIN ANALOGUES” (Zealand Pharma A/S, priority 2013, dated 2015).
Like-named read-outs stand apart in the source and are kept apart here. Numbered stars: 1 amine (or outer) side, 2 acyl side, 3 side chain; on linkers, the order of the positions; unused ones are H or OH. Bridge positions count the residues as written; N and C are the ends. Square brackets hold non-standard residues; d marks the D form. Peptide text beside a SMILES is read from it. * marks the point of attachment. C20 diacid = O=C(O)CCCCCCCCCCCCCCCCCCC(=O)*; γGlu = O=C(O)[C@H](CCC(=O)[*:2])N[*:1]; NMeY = CN[C@@H](Cc1ccc(O)cc1)C(=O)O; NMeI = CC[C@H](C)[C@H](NC)C(=O)O; Dab = NCC[C@H](N)C(=O)O; Sar = CNCC(=O)O

How the values were obtained:
[1] = target: T1, human calcitonin receptor (hCTR2) (Homo sapiens, UniProt P30988); assay: hCTR2 assay: induction of cAMP (AlphaScreen cAMP Assay kit) in COS7 cells expressing hCTR2; format: cell-based
T1 construct: expressed in transfected cells
T1 sequence (P30988 25-474): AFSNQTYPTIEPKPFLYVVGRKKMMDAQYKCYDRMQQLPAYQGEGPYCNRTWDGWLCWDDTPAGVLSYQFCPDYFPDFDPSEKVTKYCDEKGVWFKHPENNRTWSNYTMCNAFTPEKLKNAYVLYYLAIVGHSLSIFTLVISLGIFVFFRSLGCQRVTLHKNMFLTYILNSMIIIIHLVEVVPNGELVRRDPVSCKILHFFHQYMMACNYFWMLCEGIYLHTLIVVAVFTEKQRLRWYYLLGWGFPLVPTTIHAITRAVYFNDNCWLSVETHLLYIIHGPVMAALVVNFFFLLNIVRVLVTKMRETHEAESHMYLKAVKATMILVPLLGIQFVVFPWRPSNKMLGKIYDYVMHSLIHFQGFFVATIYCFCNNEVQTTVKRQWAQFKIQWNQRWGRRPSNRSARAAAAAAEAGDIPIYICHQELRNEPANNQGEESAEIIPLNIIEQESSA
Procedure, shortened: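 Functional agonism is measured as cAMP accumulation in a COS7 line stably transfected with hCTR2, lacking endogenous RAMPs. Peptides act for 15 min at 37° C with IBMX present, and curves are fitted with a 4-parameter logistic model.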

[2] = Solubility assessment (turbidity absorbance at 325 nm); format: physicochemical; settings: stock 2 mg/ml diluted 1:1, ambient temperature (typically 25°C), n=1; for Solubility, Acetate buffer pH 4: 100 mM acetate buffer pH 4.0; for Solubility, Acetate buffer pH 5: 100 mM acetate buffer pH 5.0; for Solubility, Histidine buffer pH 6: 100 mM histidine buffer pH 6.0; for Solubility, Histidine buffer pH 7: 100 mM histidine buffer pH 7.0; for Solubility, Phosphate buffer pH 6: 100 mM phosphate buffer pH 6.0; for Solubility, Phosphate buffer pH 7: 100 mM phosphate buffer pH 7.0; for Solubility, Phosphate buffer pH 7.5: 100 mM phosphate buffer pH7.5
Procedure, shortened: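 Peptide stock (2 mg/ml) in water acidified to pH 2.5 with HCl was diluted 1:1 into 100 mM acetate (pH 4.0, 5.0), histidine (pH 6.0, 7.0) or phosphate (pH 6.0, 7.0, 7.5) buffer. A280 and A325 were read at about 25°C, n=1. A325 ≤ 0.02 meant solubility ≥ 1 mg/ml.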

[3] = cAMP induction in COS7 cells expressing hCTR2, average of a minimum of 3 determinations, read-out: hCTR2 EC50

| EC50 [1, 3] | Solubility, Acetate buffer pH 4 [2] | Solubility, Acetate buffer pH 5 [2] | Solubility, Histidine buffer pH 6 [2] | Solubility, Histidine buffer pH 7 [2] | Solubility, Phosphate buffer pH 6 [2] | Solubility, Phosphate buffer pH 7 [2] | Solubility, Phosphate buffer pH 7.5 [2] | SMILES | EC50 [1] |
| --- | --- | --- | --- | --- | --- | --- | --- | --- | --- |
| 0.12 nM | SS (SS indicates solubility ≥ 1mg/ml) | SS (SS indicates solubility ≥ 1mg/ml) | SS (SS indicates solubility ≥ 1mg/ml) | SS (SS indicates solubility ≥ 1mg/ml) | SS (SS indicates solubility ≥ 1mg/ml) | II (II indicates solubility ≤ 1 mg/ml) | SS (SS indicates solubility ≥ 1mg/ml) | CC[C@H](C)[C@@H](C(=O)N[C@@H](CC(C)C)C(=O)N[C@H](CO)C(=O)N[C@@H](CO)C(=O)N[C@H](C(=O)N[C@@H](CC(N)=O)C(=O)N[C@H](C(=O)NCC(=O)N[C@@H](CO)C(=O)N[C@@H](CC(N)=O)C(=O)N[C@H](C(=O)N1CCC[C@H]1C(N)=O)[C@@H](C)O)C(C)C)[C@@H](C)O)N(C)C(=O)CN(C)C(=O)[C@@H](Cc1ccccc1)NC(=O)[C@H](CC(N)=O)NC(=O)[C@H](CC(N)=O)NC(=O)[C@H](CO)NC(=O)[C@H](CO)NC(=O)[C@H](Cc1c[nH]cn1)NC(=O)[C@H](Cc1c[nH]cn1)NC(=O)[C@H](CC(C)C)NC(=O)[C@H](Cc1ccccc1)NC(=O)[C@H](CCC(=O)O)NC(=O)[C@H](C)NC(=O)[C@H](CC(C)C)NC(=O)[C@H](CCCNC(=N)N)NC(=O)[C@H](CCC(N)=O)NC(=O)[C@@H](NC(=O)[C@H](C)NC(=O)[C@@H]1CSSC[C@H](NC(=O)[C@H](CCCNC(=N)N)NC(=O)CC[C@H](NC(=O)CCCCCCCCCCCCCCCCCCC(=O)O)C(=O)O)C(=O)N[C@@H](CC(N)=O)C(=O)N[C@@H]([C@@H](C)O)C(=O)N[C@@H](C)C(=O)N[C@@H]([C@@H](C)O)C(=O)N1)[C@@H](C)O [Compound 60, [19CD]-isoGlu-RC()NTATC()ATQRLAEFLHHSSNN-DPhe-Gly(Me)-Ile(Me)-L-DSer-STNVGSNTP-NH2] ({C20 diacid-γGlu}-RCNTATCATQRLAEFLHHSSNN[dF][Sar][NMeI]L[dS]STNVGSNTP-NH2; disulfide 2-7) | – |
| 0.37 nM | SS (SS indicates solubility ≥ 1mg/ml) | II (II indicates solubility ≤ 1 mg/ml) | II (II indicates solubility ≤ 1 mg/ml) | II (II indicates solubility ≤ 1 mg/ml) | II (II indicates solubility ≤ 1 mg/ml) | II (II indicates solubility ≤ 1 mg/ml) | II (II indicates solubility ≤ 1 mg/ml) | CC[C@H](C)[C@@H](C(=O)N[C@@H](CC(C)C)C(=O)N[C@@H](CO)C(=O)N[C@@H](CO)C(=O)N[C@H](C(=O)N[C@@H](CC(N)=O)C(=O)N[C@H](C(=O)NCC(=O)N[C@@H](CO)C(=O)N[C@@H](CC(N)=O)C(=O)N[C@H](C(=O)N(C)[C@@H](Cc1ccc(O)cc1)C(N)=O)[C@@H](C)O)C(C)C)[C@@H](C)O)N(C)C(=O)CN(C)C(=O)[C@H](Cc1ccccc1)NC(=O)[C@H](CC(N)=O)NC(=O)[C@H](CC(N)=O)NC(=O)[C@H](CO)NC(=O)[C@H](CO)NC(=O)[C@H](Cc1c[nH]cn1)NC(=O)[C@H](Cc1c[nH]cn1)NC(=O)[C@H](CC(C)C)NC(=O)[C@H](Cc1ccccc1)NC(=O)[C@H](CCC(=O)O)NC(=O)[C@H](C)NC(=O)[C@H](CC(C)C)NC(=O)[C@H](CCCNC(=N)N)NC(=O)[C@H](CCC(N)=O)NC(=O)[C@@H](NC(=O)[C@H](C)NC(=O)[C@@H]1CSSC[C@H](NC(=O)[C@H](CCCNC(=N)N)NC(=O)CC[C@H](NC(=O)CCCCCCCCCCCCCCCCCCC(=O)O)C(=O)O)C(=O)N[C@@H](CC(N)=O)C(=O)N[C@@H]([C@@H](C)O)C(=O)N[C@@H](C)C(=O)N[C@@H]([C@@H](C)O)C(=O)N1)[C@@H](C)O [Compound 62, [19CD]-isoGlu-RC()NTATC()ATQRLAEFLHHSSNNF-Gly(Me)-Ile(Me)-LSSTNVGSNT-Tyr(Me)-NH2] ({C20 diacid-γGlu}-RCNTATCATQRLAEFLHHSSNNF[Sar][NMeI]LSSTNVGSNT[NMeY]-NH2; disulfide 2-7) | – |
| 0.4 nM | SS (SS indicates solubility ≥ 1mg/ml) | II (II indicates solubility ≤ 1 mg/ml) | SS (SS indicates solubility ≥ 1mg/ml) | SS (SS indicates solubility ≥ 1mg/ml) | SS (SS indicates solubility ≥ 1mg/ml) | SS (SS indicates solubility ≥ 1mg/ml) | SS (SS indicates solubility ≥ 1mg/ml) | CC[C@H](C)[C@@H](C(=O)N[C@@H](CC(C)C)C(=O)N[C@@H](CO)C(=O)N[C@@H](CO)C(=O)N[C@H](C(=O)N[C@@H](CC(N)=O)C(=O)N[C@H](C(=O)NCC(=O)N[C@@H](CO)C(=O)N[C@@H](CC(N)=O)C(=O)N[C@H](C(=O)N1CCC[C@H]1C(N)=O)[C@@H](C)O)C(C)C)[C@@H](C)O)N(C)C(=O)CN(C)C(=O)[C@H](Cc1ccccc1)NC(=O)[C@H](CC(N)=O)NC(=O)[C@H](CC(N)=O)NC(=O)[C@H](CO)NC(=O)[C@H](CO)NC(=O)[C@H](Cc1c[nH]cn1)NC(=O)[C@H](Cc1c[nH]cn1)NC(=O)[C@H](CC(C)C)NC(=O)[C@H](Cc1ccccc1)NC(=O)[C@H](CCC(=O)O)NC(=O)[C@H](C)NC(=O)[C@H](CC(C)C)NC(=O)[C@H](CCCNC(=N)N)NC(=O)[C@H](CCC(N)=O)NC(=O)[C@@H](NC(=O)[C@H](C)NC(=O)[C@@H]1CSSC[C@H](NC(=O)[C@H](CCN)NC(=O)CC[C@H](NC(=O)CCCCCCCCCCCCCCCCCCC(=O)O)C(=O)O)C(=O)N[C@@H](CC(N)=O)C(=O)N[C@@H]([C@@H](C)O)C(=O)N[C@@H](C)C(=O)N[C@@H]([C@@H](C)O)C(=O)N1)[C@@H](C)O [Compound 64, [19CD]-isoGlu-Dab-C()NTATC()ATQRLAEFLHHSSNNF-Gly(Me)-Ile(Me)-LSSTNVGSNTP-NH2] ({C20 diacid-γGlu}-[Dab]CNTATCATQRLAEFLHHSSNNF[Sar][NMeI]LSSTNVGSNTP-NH2; disulfide 2-7) | – |

| SMILES | EC50 [1, 3] | Solubility, Acetate buffer pH 4 [2] | Solubility, Acetate buffer pH 5 [2] | Solubility, Histidine buffer pH 6 [2] | Solubility, Histidine buffer pH 7 [2] | Solubility, Phosphate buffer pH 6 [2] | Solubility, Phosphate buffer pH 7 [2] | Solubility, Phosphate buffer pH 7.5 [2] | EC50 [1] |
| --- | --- | --- | --- | --- | --- | --- | --- | --- | --- |
| CC[C@H](C)[C@@H](C(=O)N[C@@H](CC(C)C)C(=O)N[C@@H](CO)C(=O)N[C@@H](CO)C(=O)N[C@H](C(=O)N[C@@H](CC(N)=O)C(=O)N[C@H](C(=O)NCC(=O)N[C@@H](CO)C(=O)N[C@@H](CC(N)=O)C(=O)N[C@H](C(=O)N1CCC[C@H]1C(N)=O)[C@@H](C)O)C(C)C)[C@@H](C)O)N(C)C(=O)[C@H](C)NC(=O)CN(C)C(=O)[C@H](Cc1ccccc1)NC(=O)[C@H](CC(N)=O)NC(=O)[C@H](CC(N)=O)NC(=O)[C@H](CO)NC(=O)[C@H](CO)NC(=O)[C@H](Cc1c[nH]cn1)NC(=O)[C@H](Cc1c[nH]cn1)NC(=O)[C@H](CC(C)C)NC(=O)[C@H](Cc1ccccc1)NC(=O)[C@H](CCC(=O)O)NC(=O)[C@H](C)NC(=O)[C@H](CC(C)C)NC(=O)[C@H](CCCNC(=N)N)NC(=O)[C@H](CCC(N)=O)NC(=O)[C@@H](NC(=O)[C@H](C)NC(=O)[C@@H]1CSSC[C@H](NC(=O)[C@H](CCN)NC(=O)CC[C@H](NC(=O)CCCCCCCCCCCCCCCCCCC(=O)O)C(=O)O)C(=O)N[C@@H](CC(N)=O)C(=O)N[C@@H]([C@@H](C)O)C(=O)N[C@@H](C)C(=O)N[C@@H]([C@@H](C)O)C(=O)N1)[C@@H](C)O [Compound 63, [19CD]-isoGlu-Dab-C()NTATC()ATQRLAEFLHHSSNNF-Gly(Me)-A-Ile(Me)-LSSTNVGSNTP-NH2] ({C20 diacid-γGlu}-[Dab]CNTATCATQRLAEFLHHSSNNF[Sar]A[NMeI]LSSTNVGSNTP-NH2; disulfide 2-7) | – | SS (SS indicates solubility ≥ 1mg/ml) | II (II indicates solubility ≤ 1 mg/ml) | SS (SS indicates solubility ≥ 1mg/ml) | SS (SS indicates solubility ≥ 1mg/ml) | SS (SS indicates solubility ≥ 1mg/ml) | SS (SS indicates solubility ≥ 1mg/ml) | SS (SS indicates solubility ≥ 1mg/ml) | 0.2 nM |
